Drawing on patent US11466006B2, “Dual selective PI3 delta and gamma kinase inhibitors” (Rhizen Pharmaceuticals SA, priority 2013, dated 2022), this text covers apparent cytotoxicity, GI50 and IC50 for one compound.

The test system of series [1] is T-lymphoma (MOLT-4, Jurkat, CCRF-CEM, Hut-78 & HuT-102) cells. Description: In vitro cell proliferation assay in leukemic cell lines (MTT). The class given is cell-based. On the procedure:
Growth inhibition assays were carried out using 10% FBS supplemented media. Cells were seeded at a concentration of 5000-20,000 cells/well in a 96-well plate. Test compounds at a concentration range from 0.01 to 10000 nM were added after 24 h. Growth was assessed using the 3-[4,5-dimethylthiazol-2-yl]-2,5-diphenyltetrazolium bromide (MTT) dye reduction test at 0 h (prior to the addition of the test compound) and 72 h after the addition of test compound. Absorbance was read on a Fluostar Optima (BMG Labtech, Germany) at a wave length of 450 nm. Data were analysed using GraphPad Prism and percent inhibition due to the test compound compared to the control was calculated accordingly.

Another series concerns the target T1, PI3K gamma (Mus musculus, UniProt Q9JHG7).
T1 construct: endogenous in cells; host or cells: RAW 264.7 macrophages
Description: c5a induced AktS473 phosphorylation in RAW 264.7 macrophages (PI3Kγ selectivity). The class given is cell-based. The note with it: read-out: Cellular IC50 PI3K gamma (c5a induced pAKT in RAW macrophages). As for the experimental part:
The objective of this study was to determine the effect of Compound A1 on PI3Kγ kinase mediated c5a induced AktS473 phosphorylation in RAW 264.7 macrophages. • RAW 264.7 cells were treated with desired concentrations of the test compound for 15 min. 1 ml of 2× c5a was added such that the final concentration was 50 ng/ml and incubated for 15 min. • Media was discarded and washed with 1 ml of ice-cold 1× PBS. • 250 μl of cell lysis buffer was added and incubated on ice for 30 min. • Samples were centrifuged and supernatant was stored at −80° C. until analysis • Samples were analyzed by Western Blotting using pAKT (S473) as the primary and anti-rabbit IgG-HRP as a secondary antibody. • Intensity of the bands was determined using ImageJ 1.42q (NIH, USA) and normalized to Actin (loading control). Data was plotted using GraphPad Prism (Version 5.02).

T1 sequence (Q9JHG7 whole entry): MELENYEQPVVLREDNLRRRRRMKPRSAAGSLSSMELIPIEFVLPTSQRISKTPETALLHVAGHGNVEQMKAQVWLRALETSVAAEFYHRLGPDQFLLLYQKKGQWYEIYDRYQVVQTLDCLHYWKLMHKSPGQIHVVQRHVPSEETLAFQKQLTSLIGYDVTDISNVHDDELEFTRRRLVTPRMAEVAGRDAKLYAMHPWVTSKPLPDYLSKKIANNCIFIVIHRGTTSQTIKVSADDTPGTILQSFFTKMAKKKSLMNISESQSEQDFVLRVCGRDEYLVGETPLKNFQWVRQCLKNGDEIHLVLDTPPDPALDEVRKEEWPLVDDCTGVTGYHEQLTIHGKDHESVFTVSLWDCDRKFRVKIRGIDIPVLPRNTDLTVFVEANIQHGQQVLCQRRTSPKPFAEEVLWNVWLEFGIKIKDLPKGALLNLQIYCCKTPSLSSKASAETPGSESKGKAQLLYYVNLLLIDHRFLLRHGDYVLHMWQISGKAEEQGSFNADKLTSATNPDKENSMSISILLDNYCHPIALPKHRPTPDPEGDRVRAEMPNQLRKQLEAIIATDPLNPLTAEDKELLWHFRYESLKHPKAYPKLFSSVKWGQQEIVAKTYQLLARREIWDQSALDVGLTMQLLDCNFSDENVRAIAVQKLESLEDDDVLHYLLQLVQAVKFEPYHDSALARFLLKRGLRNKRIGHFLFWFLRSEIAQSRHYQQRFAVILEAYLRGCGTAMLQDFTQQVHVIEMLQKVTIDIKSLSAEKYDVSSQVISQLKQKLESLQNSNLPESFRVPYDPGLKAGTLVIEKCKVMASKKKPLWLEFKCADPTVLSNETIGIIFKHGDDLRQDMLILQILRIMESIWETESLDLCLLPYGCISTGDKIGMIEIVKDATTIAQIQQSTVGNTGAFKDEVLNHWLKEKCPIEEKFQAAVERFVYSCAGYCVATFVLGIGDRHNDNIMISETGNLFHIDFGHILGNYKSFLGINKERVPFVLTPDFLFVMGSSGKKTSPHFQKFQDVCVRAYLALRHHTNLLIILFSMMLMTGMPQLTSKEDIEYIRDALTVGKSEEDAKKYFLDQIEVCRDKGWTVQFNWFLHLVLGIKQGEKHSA

For orientation: GI50 means the concentration that inhibits growth by half. What is called IC50 is the concentration that gives 50% inhibition. As to `CC[C@H](Nc1ncnc2[nH]cnc12)c1oc2ccccc2c(=O)c1-c1cccc(F)c1` [Compound A1, (S)-2-(1-(9H-purin-6-ylamino)propyl)-3-(3-fluorophenyl)-4H-chromen-4-one], in series [1] (72-h incubation period, up to 10 μM), the apparent cytotoxicity entry is reported as “did not display any apparent cytotoxicity”. The GI50 in series [1] (MOLT-4, Jurkat, CCRF-CEM, Hut-78 & HuT-102, 72 h, MTT, read-out: GI50, reduction in T-lymphoma cell viability) fell in the range of 1000 to 5000 nM. Also, the IC50 on PI3K gamma turned out to be 22.3 nM.
